Test results taken from ChEMBL document CHEMBL6127081, “Peptide inhibitors targeting Ras and Ras-associated protein-protein interactions” (Eur J Med Chem, 2024).
Where a SMILES comes first, the peptide text is derived from it. Bridges are numbered along the chain shown (N, C = ends). [ ]: non-standard residue; d: D form. The star is where a group is joined. hPhe(3,5-F2-4-CF3) = N[C@@H](CCc1cc(F)c(C(F)(F)F)c(F)c1)C(=O)O; hPhe(3-Cl-4-CF3) = N[C@@H](CCc1ccc(C(F)(F)F)c(Cl)c1)C(=O)O; hPhe(4-CF3) = N[C@@H](CCc1ccc(C(F)(F)F)cc1)C(=O)O; NEtPhe(4-Me) = CCN[C@@H](Cc1ccc(C)cc1)C(=O)O; NMePhe(4-Cl) = CN[C@@H](Cc1ccc(Cl)cc1)C(=O)O; Phe(3-Cl) = N[C@@H](Cc1cccc(Cl)c1)C(=O)O; NMeGly(cPent) = CN[C@H](C(=O)O)C1CCCC1; Phe(4-F) = N[C@@H](Cc1ccc(F)cc1)C(=O)O; 2Nal = N[C@@H](Cc1ccc2ccccc2c1)C(=O)O; NMeCha = CN[C@@H](CC1CCCCC1)C(=O)O; NMeF = CN[C@@H](Cc1ccccc1)C(=O)O; NMeD = CN[C@@H](CC(=O)O)C(=O)O; NMeL = CN[C@@H](CC(C)C)C(=O)O; NMeV = CN[C@H](C(=O)O)C(C)C; NMeA = CN[C@@H](C)C(=O)O; Nle = CCCC[C@H](N)C(=O)O; Pyrrolidide = C1CCN(*)C1; Ac5c = NC1(C(=O)O)CCCC1; Aze = O=C(O)[C@@H]1CCN1; β3hA = C[C@H](N)CC(=O)O; Sar = CNCC(=O)O

Tests used:
[1] = Inhibition of Biotinylated Avi-tagged KRas G12D mutant/GST tagged Raf1-RBD domain (1 to 149 residues) (unknown origin) incubated for 1 hr by TR-FRET assay; parameters: species or system Homo sapiens
SOS1-KRAS = SOS1-KRAS (Homo sapiens, UniProt P01116, G12D); test: Inhibition of KRAS G12D mutant/SOS1 (unknown origin) interaction by TR-FRET assay; format: protein-complex assay
SOS1-KRAS, sequence (P01116 whole entry G12D, looked up): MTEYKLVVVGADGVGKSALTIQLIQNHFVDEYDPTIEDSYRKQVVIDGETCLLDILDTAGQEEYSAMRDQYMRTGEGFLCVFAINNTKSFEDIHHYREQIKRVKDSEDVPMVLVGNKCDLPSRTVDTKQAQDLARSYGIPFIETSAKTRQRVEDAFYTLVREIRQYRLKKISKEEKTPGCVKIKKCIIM

GTPase KRas [2] = target: T1, GTPase KRas (Homo sapiens, UniProt P01116); test: Inhibition of KRas (unknown origin)
T1 sequence (P01116 whole entry): as the sequence (P01116 whole entry G12D, looked up) above, with D12G counted along it

GTPase KRas [3] = target: T1, GTPase KRas; test: Binding affinity to KRas (unknown origin) assessed as dissociation constant
GTPase KRas [4] = target: T2, GTPase KRas (Homo sapiens, UniProt P01116, G12D); test: Binding affinity to KRas G12D mutant (unknown origin) assessed as dissociation constant by SPR analysis
T2 sequence (P01116 whole entry G12D): as the sequence (P01116 whole entry G12D, looked up) above

GTPase KRas [5] = target: T2, GTPase KRas; test: Inhibition of KRas G12D mutant (unknown origin) by TR-FRET assay
GTPase KRas [6] = target: T1, GTPase KRas; test: Binding affinity to GppNHp bound KRas (unknown origin) assessed as dissociation constant by fluorescence anisotropy assay
GTPase KRas [7] = target: T1, GTPase KRas; test: Binding affinity to GTP bound KRas (unknown origin) assessed as dissociation constant by fluorescence anisotropy assay
GTPase KRas [8] = target: T2, GTPase KRas; test: Inhibition of human KRas G12D mutant incubated for 0.5 hrs by absorbance based analysis
GTPase KRas/RAF1 = GTPase KRas/RAF1 (Homo sapiens, UniProt P01116); test: Inhibition of KRAS/RAF interaction (unknown origin) by HTRF assay; format: protein assay
GTPase KRas/RAF1, sequence (P04049 whole entry): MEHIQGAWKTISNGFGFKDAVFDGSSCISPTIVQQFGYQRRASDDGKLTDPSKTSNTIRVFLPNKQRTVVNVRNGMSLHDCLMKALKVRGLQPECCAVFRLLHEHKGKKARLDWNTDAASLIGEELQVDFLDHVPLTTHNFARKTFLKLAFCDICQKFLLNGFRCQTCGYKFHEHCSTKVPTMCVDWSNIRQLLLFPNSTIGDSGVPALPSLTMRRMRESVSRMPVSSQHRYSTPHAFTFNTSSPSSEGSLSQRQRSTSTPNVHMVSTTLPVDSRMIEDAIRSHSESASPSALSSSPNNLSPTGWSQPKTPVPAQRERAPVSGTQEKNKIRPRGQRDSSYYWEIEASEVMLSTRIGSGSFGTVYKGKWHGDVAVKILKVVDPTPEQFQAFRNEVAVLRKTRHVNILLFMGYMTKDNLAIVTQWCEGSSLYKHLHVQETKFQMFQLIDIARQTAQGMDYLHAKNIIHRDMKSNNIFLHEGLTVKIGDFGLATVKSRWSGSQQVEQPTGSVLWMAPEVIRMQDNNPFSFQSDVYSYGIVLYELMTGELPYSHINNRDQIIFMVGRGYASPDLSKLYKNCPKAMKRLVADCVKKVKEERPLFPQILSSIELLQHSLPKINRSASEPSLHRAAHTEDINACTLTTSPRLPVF
GTPase KRas/RAF1, sequence (P01116 whole entry): as the sequence (P01116 whole entry G12D, looked up) above, with D12G counted along it

## CC(C)C[C@@H]1NC(=O)[C@H](CCC(=O)O)NC(=O)[C@H](CC(C)C)NC(=O)[C@@H]2CCCN2C(=O)[C@H](CCCNC(=N)N)NC(=O)[C@H](Cc2ccc(O)cc2)NC(=O)[C@@H]2CCCN2C(=O)[C@H](Cc2ccc(O)cc2)NC(=O)[C@H](CC(N)=O)NC(=O)[C@@H](Cc2ccc(O)cc2)NC(=O)CSC[C@@H](C(=O)NCC(N)=O)NC(=O)[C@H](Cc2ccc(O)cc2)NC(=O)[C@H](Cc2c[nH]c3ccccc23)NC1=O
[1]
  IC50: 15.3 µM

## CC[C@H](C)[C@@H]1NC(=O)[C@H](C)N(C)C(=O)C[C@@H](C(=O)N2CCCC2)NC(=O)[C@H](CC(C)C)N(C)C(=O)[C@H](Cc2ccccc2)N(C)C(=O)[C@H](CC(C)C)NC(=O)[C@H](CCc2ccc(C(F)(F)F)cc2)NC(=O)CN(C)C(=O)[C@H](Cc2ccc(Cl)cc2)N(C)C(=O)CN(C)C1=O ([NMeA]I[Sar][NMePhe(4-Cl)][Sar][hPhe(4-CF3)]L[NMeF][NMeL]D-Pyrrolidide; lactam N-10)
SOS1-KRAS
  IC50: 0.018 µM

## CC[C@H](C)[C@@H]1NC(=O)[C@@H]2CCCN2C(=O)CNC(=O)CCn2nncc2COCCCC(C(=O)N[C@@H](CC(C)C)C(N)=O)NC1=O (some centres not stated)
GTPase KRas [2]
  IC50: 100 µM

## CC[C@H](C)[C@@H]1NC(=O)[C@H](CC(C)C)N(C)C(=O)C[C@H](C)NC(=O)[C@H](C(C)C)N(C)C(=O)C2(CCCC2)NC(=O)[C@@H]2CCCN2C(=O)[C@H](CCc2ccc(C(F)(F)F)c(Cl)c2)NC(=O)CN(C)C(=O)[C@H](CC2CCCCC2)N(C)C(=O)CN(C)C1=O (cyclo([Ac5c][NMeV][β3hA][NMeL]I[Sar][NMeCha][Sar][hPhe(3-Cl-4-CF3)]P))
SOS1-KRAS
  IC50: 0.011 µM

## CC[C@H](C)[C@@H]1NC(=O)[C@H](C)N(C)C(=O)C[C@@H](C(=O)N2CCCC2)NC(=O)[C@H](C(C)C)N(C)C(=O)[C@H](Cc2ccccc2)N(C)C(=O)[C@H](Cc2c[nH]c3ccccc23)NC(=O)[C@H](Cc2cccc(Cl)c2)NC(=O)CN(C)C(=O)[C@H](Cc2ccc(Cl)cc2)N(C)C(=O)CN(C)C(=O)CN(C)C1=O ([NMeA]I[Sar][Sar][NMePhe(4-Cl)][Sar][Phe(3-Cl)]W[NMeF][NMeV]D-Pyrrolidide; lactam N-11)
SOS1-KRAS
  IC50: 0.054 µM

## Cc1[nH]c2cc(Cl)cc(Cl)c2c1CCN
GTPase KRas [3]
  Kd: ~1100 µM

## CC[C@H](C)[C@H](NC(=O)CNC(=O)[C@H](Cc1ccccc1)NC(=O)[C@H](Cc1ccccc1)NC(=O)[C@H](CCCNC(=N)N)NC(=O)[C@H](CCCNC(=N)N)NC(C)=O)C(=O)N[C@@]1(C)CCC/C=C\CCC[C@@](C)(C(=O)N[C@@H](CC(C)C)C(=O)N[C@@H](CCCCN)C(=O)N[C@H](C(=O)N[C@@H](CCC(=O)O)C(=O)N[C@@H](CCC(=O)O)C(=O)NCC(=O)N[C@@H](CC(N)=O)C(N)=O)[C@@H](C)O)NC(=O)[C@@H](CC(N)=O)NC(=O)[C@H]([C@@H](C)O)NC(=O)[C@@H](CC(C)C)NC1=O
SOS1-KRAS
  IC50: 0.036 µM

## CC[C@H](C)[C@@H]1NC(=O)[C@H](Cc2ccc(O)cc2)NC(=O)[C@H](CC(C)C)NC(=O)[C@@H]2CCCN2C(=O)[C@@H](NC(=O)[C@H](CCCNC(=N)N)NC(=O)[C@H](CCCNC(=N)N)NC(C)=O)CSSC[C@@H](C(=O)N[C@@H](CCCNC(=N)N)C(=O)N[C@@H](CCCNC(=N)N)C(N)=O)NC(=O)[C@H](C(C)C)NC(=O)[C@@H]2CCCN2C(=O)[C@H](CC(=O)O)NC(=O)[C@H](Cc2ccc(O)cc2)NC(=O)[C@H](CO)NC1=O (Ac-RRCPLYISYDPVCRR-NH2; disulfide 3-13)
GTPase KRas [4]
  Kd: 0.051 µM
GTPase KRas [5]
  IC50: 0.0089 µM

## CC(C)[C@H]1NC(=O)[C@H](CCCNC(=N)N)NC(=O)[C@@H](Cc2ccccc2)NC(=O)[C@@H]2CCCCNC(=O)c3cc(cc(c3)C(=O)N[C@H](Cc3ccc4ccccc4c3)C(=O)N[C@@H](CO)C(=O)N[C@@H](CCC(N)=O)C(=O)N[C@H](Cc3ccc4ccccc4c3)C(=O)N[C@@H](c3ccccc3)C(=O)N2)C(=O)NC[C@@H](C(N)=O)NC(=O)[C@H](CCCNC(=N)N)NCC1=O
GTPase KRas [6]
  Kd: 1.6 µM
GTPase KRas [7]
  Kd: 1.2 µM

## CC[C@H](C)[C@@H]1NC(=O)[C@@H]2CCCN2C(=O)[C@H](Cc2ccc(O)cc2)NC(=O)[C@@H](NC(=O)[C@H](CC(=O)O)NC(=O)[C@H](Cc2ccc(O)cc2)NC(=O)[C@H](Cc2ccccc2)NC(=O)[C@H](Cc2c[nH]cn2)NC(=O)[C@@H](N)Cc2ccccc2)CC#CC[C@@H](C(=O)N[C@@H](CC(C)C)C(=O)N[C@H](C(=O)N2CCC[C@H]2C(=O)N2CCC[C@H]2C(N)=O)[C@@H](C)CC)NC1=O
GTPase KRas [2]
  IC50: 0.023 µM

## CCCCCCC[C@@H]1NC(=O)[C@H](CO)NC(=O)[C@H](Cc2ccc(F)cc2)NC(=O)[C@H](CC(=O)O)NC(=O)[C@@H]2CCCN2C(=O)[C@H](Cc2c[nH]c3ccccc23)NC(=O)[C@H]2CSCCCSC[C@H](NC1=O)C(=O)N[C@@H](CCCC)C(=O)NCCC(=O)N2
GTPase KRas [8]
  EC50: 0.022 µM

## CCCC[C@@H]1NC(=O)[C@H](Cc2ccc(F)cc2)NC(=O)[C@H](CCCNC(=N)N)NC(=O)[C@H](Cc2ccc3ccccc3c2)NC(=O)[C@H](CCCNC(=N)N)NC(=O)[C@H](CCCNC(=N)N)NC(=O)[C@H](CCC(N)=O)NC(=O)[C@H](C)NC(=O)[C@H]([C@@H](C)O)NC(=O)[C@H](Cc2c[nH]c3ccccc23)NC(=O)[C@H](CO)NC1=O (cyclo([2Nal]R[Phe(4-F)][Nle]SWTAQRR))
GTPase KRas/RAF1
  IC50: 0.65 µM

## CC[C@H](C)[C@@H]1NC(=O)[C@H](CC(C)C)N(C)C(=O)C[C@H](C)NC(=O)[C@H](C(C)C)N(C)C(=O)C2(CCCC2)NC(=O)[C@@H]2CCCN2C(=O)[C@H](CCc2ccc(C(F)(F)F)c(Cl)c2)NC(=O)CN(C)C(=O)[C@H](CC2CCCCC2)N(C)C(=O)[C@@H]2CCN2C(=O)[C@H](C)N(C)C1=O (cyclo([Ac5c][NMeV][β3hA][NMeL]I[NMeA][Aze][NMeCha][Sar][hPhe(3-Cl-4-CF3)]P))
SOS1-KRAS
  IC50: 0.024 µM

## CC(C)C[C@H](NC(=O)C1CCCOCc2cnnn2CCC(=O)NCC(=O)N2CCCC[C@H]2C(=O)N[C@@H](Cc2cccc3ccccc23)C(=O)N1)C(N)=O (some centres not stated)
GTPase KRas [2]
  IC50: 7.7 µM

## C[C@@H](NC(=O)[C@H](Cc1ccccc1)NC(=O)[C@@H](CCCNC(=N)N)NC(=O)[C@H](CCCN)NC(=O)[C@@H]1CNC(=O)c2cc3cc(c2)C(=O)N[C@H](Cc2ccc4ccccc4c2)C(=O)N[C@@H](CO)C(=O)N[C@@H](CC(N)=O)C(=O)N[C@H](Cc2ccc4ccccc4c2)C(=O)N[C@@H](c2ccccc2)C(=O)N[C@@H](CCCCNC3=O)C(=O)N[C@H](Cc2ccccc2)C(=O)N[C@@H](CCC(N)=O)C(=O)N[C@H](CCCNC(=N)N)C(=O)CN[C@@H](CCCNC(=N)N)C(=O)N1)C(N)=O
SOS1-KRAS
  IC50: 0.12 µM

## CC[C@H](C)[C@@H]1NC(=O)[C@H](CC(C)C)N(C)C(=O)C[C@@H](C(=O)N(C)C)N(C)C(=O)[C@H](C2CCCC2)N(C)C(=O)C2(CCCC2)NC(=O)[C@@H]2CCCN2C(=O)[C@H](CCc2cc(F)c(C(F)(F)F)c(F)c2)NC(=O)CN(C)C(=O)[C@H](Cc2ccc(C)cc2)N(CC)C(=O)[C@@H]2CCN2C(=O)[C@H](C)N(C)C1=O ([NMeL]I[NMeA][Aze][NEtPhe(4-Me)][Sar][hPhe(3,5-F2-4-CF3)]P[Ac5c][NMeGly(cPent)][NMeD]-NMe2; lactam N-11)
SOS1-KRAS
  IC50: < 0.002 µM

## CC[C@H](C)[C@@H]1NC(=O)[C@H](Cc2ccccc2)NC(=O)[C@H](CCCCN)NC(=O)[C@H](CCC(=O)O)NC(=O)[C@H]([C@@H](C)O)NC(=O)[C@H](C(C)C)NC(=O)[C@H]([C@@H](C)CC)NC(=O)[C@H]([C@@H](C)CC)NC(=O)[C@H](Cc2ccc(O)cc2)NC(=O)CSC[C@@H](C(=O)NCC(N)=O)NC(=O)[C@H](Cc2c[nH]cn2)NC(=O)[C@H](Cc2c[nH]cn2)NC(=O)[C@H](C(C)C)NC(=O)[C@H](Cc2c[nH]c3ccccc23)NC1=O
[1]
  IC50: 3 µM

## CC[C@H](C)[C@@H]1NC(=O)[C@H](CC(C)C)N(C)C(=O)C[C@H](C)NC(=O)[C@H](CC(C)C)N(C)C(=O)C2(CCCC2)NC(=O)[C@@H]2CCCN2C(=O)[C@H](CCc2ccc(C(F)(F)F)cc2)NC(=O)CN(C)C(=O)[C@H](CC2CCCCC2)N(C)C(=O)CN(C)C(=O)CN(C)C1=O (cyclo([Ac5c][NMeL][β3hA][NMeL]I[Sar][Sar][NMeCha][Sar][hPhe(4-CF3)]P))
SOS1-KRAS
  IC50: 0.11 µM

## CC(C)C[C@H](NC(=O)C1CCCOCc2cnnn2CCC(=O)NCC(=O)N2CCC[C@H]2C(=O)N[C@@H](Cc2cccc3ccccc23)C(=O)N1)C(N)=O (some centres not stated)
GTPase KRas [2]
  IC50: 7.1 µM

## CCCC[C@@H]1NC(=O)[C@H](Cc2ccc(F)cc2)NC(=O)[C@H](CCCNC(=N)N)NC(=O)[C@H](Cc2ccc3ccccc3c2)NC(=O)[C@H](CCCNC(=N)N)NC(=O)[C@H](CCCNC(=N)N)NC(=O)[C@H](CCCNC(=N)N)NC(=O)[C@H](C)NC(=O)[C@H]([C@@H](C)O)NC(=O)[C@H](Cc2c[nH]c3ccccc23)NC(=O)[C@H](CCC(N)=O)NC1=O (cyclo([2Nal]R[Phe(4-F)][Nle]QWTARRR))
GTPase KRas/RAF1
  IC50: 0.12 µM
